According to US4355038A, “α-Substituted ureido-benzylpenicillanic acids” (Chugai Seiyaku Kabushiki Kaisha, priority 1980, dated 1982):
Converted amounts (≈) assume the structure as drawn.

Legend:
[1] = system: Pseudomonas aeruginosa J-169-CM-222; experiment: MIC, agar plate doubling dilution method; type: cell-based; details: J169CM222, HI agar, 37° C., 20 hours, read-out: minimum inhibitory concentration (MIC)
Method: (§1) Invitro antibacterial activity was measured by the agar plate doubling dilution method described below. A test culture incubated overnight in a heart infusion broth was diluted by 100 to 1000 fold and one […] of the culture was inoculated on heart infusion agars (HI agar) containing various concentrations of a specific compound and the inoculates were incubated at 37° C. for 20 hours.

Escherichia coli NIHJ = experiment: MIC, agar plate doubling dilution method; type: cell-based; details: HI agar, 37° C., 20 hours, read-out: minimum inhibitory concentration (MIC)
Method: as §1

[2] = system: Bacillus subtilis POI-219; experiment: MIC, agar plate doubling dilution method; type: cell-based; details: POI219, HI agar, 37° C., 20 hours, read-out: minimum inhibitory concentration (MIC)
Method: as §1

[3] = system: Pseudomonas aeruginosa J-169; experiment: MIC, agar plate doubling dilution method; type: cell-based; details: J169, HI agar, 37° C., 20 hours, read-out: minimum inhibitory concentration (MIC)
Method: as §1

[4] = system: Staphylococcus aureus 209P; experiment: MIC, agar plate doubling dilution method; type: cell-based; details: HI agar, 37° C., 20 hours, read-out: minimum inhibitory concentration (MIC)
Method: as §1

[5] = system: Klebsiella pneumoniae 15c; experiment: MIC, agar plate doubling dilution method; type: cell-based; details: HI agar, 37° C., 20 hours, read-out: minimum inhibitory concentration (MIC)
Method: as §1

Proteus mirabilis 9' = experiment: MIC, agar plate doubling dilution method; type: cell-based; details: HI agar, 37° C., 20 hours, read-out: minimum inhibitory concentration (MIC)
Method: as §1

Shigella flexneri 2b = experiment: MIC, agar plate doubling dilution method; type: cell-based; details: HI agar, 37° C., 20 hours, read-out: minimum inhibitory concentration (MIC)
Method: as §1

Salmonella paratyphi A = experiment: MIC, agar plate doubling dilution method; type: cell-based; details: Salmonella enterica, 20 h, read-out: minimum inhibitory concentration (MIC)
Method: as §1

[6] = system: Pseudomonas aeruginosa J-272; experiment: MIC, agar plate doubling dilution method; type: cell-based; details: J272, HI agar, 37° C., 20 hours, read-out: minimum inhibitory concentration (MIC)
Method: as §1

[7] = system: Pseudomonas aeruginosa J-272; experiment: ED50 in mice infected intraperitoneally with Pseudomonas aeruginosa; type: in vivo, ddY male mice; details: subcutaneous 1 h and 3 h after inoculation, 1 × 10^4 cells inoculated i.p. in 5% mucin, survival five days after injection
Method: Five-week-old ddY male mice (five constituting one group) weighing 21 to 25 g on average were administered intraperitoneally with 5% mucin suspensions of test microorganisms that were incubated in brain heart infusion agar plates overnight at 37° C.
One hour and three hours after the inoculation, the mice were injected subcutaneously with various concentrations of the test compounds. The ED50 of each test compound was determined from the number of the mice that were still alive five days after injection of the respective doses.

Structure (SMILES)	MIC [1] [µg/mL]	MIC (Escherichia coli NIHJ) [µg/mL]	MIC [2] [µg/mL]	MIC [3] [µg/mL]	MIC [4] [µg/mL]	MIC [5] [µg/mL]	MIC (Proteus mirabilis 9') [µg/mL]	MIC (Shigella flexneri 2b) [µg/mL]	MIC (Salmonella paratyphi A) [µg/mL]	MIC [6] [µg/mL]	ED50 (SC) [7] [mg/head]
CC(=O)OCCCN(C(=O)N[C@@H](C(=O)N[C@@H]1C(=O)N2[C@@H]1SC(C)(C)[C@@H]2C(=O)O)c1ccccc1)C(=O)c1ccc(O)c(O)c1 [compound (e), 6-[D(-)-α-{3-(3,4-dihydroxybenzoyl)-3-(3-acetoxypropyl)-1-ureido}-α-phenylacetamido]-penicillanic acid]	6.25 (≈ 9.94 µM)	0.78 (≈ 1.24 µM)	0.4 (≈ 0.636 µM)	3.12 (≈ 4.96 µM)	1.56 (≈ 2.48 µM)	0.4 (≈ 0.636 µM)	0.78 (≈ 1.24 µM)	≤ 0.1	≤ 0.1	0.4 (≈ 0.636 µM)	1.71
COCCN(C(=O)N[C@@H](C(=O)N[C@@H]1C(=O)N2[C@@H]1SC(C)(C)[C@@H]2C(=O)O)c1ccccc1)C(=O)c1ccc(O)c(O)c1 [compound (d), 6-[D(-)-α-{3-(3,4-dihydroxybenzoyl)-3-(2-methyoxyethyl)-1-ureido}-α-phenylacetamide]-penicillanic acid]	3.12 (≈ 5.32 µM)	0.4 (≈ 0.682 µM)	0.4 (≈ 0.682 µM)	3.12 (≈ 5.32 µM)	0.78 (≈ 1.33 µM)	0.2 (≈ 0.341 µM)	0.2 (≈ 0.341 µM)	≤ 0.1	≤ 0.1	0.78 (≈ 1.33 µM)	1.52
CC1(C)S[C@@H]2[C@H](NC(=O)[C@H](NC(=O)N(CCCO)C(=O)c3ccc(O)c(O)c3)c3ccc(O)cc3)C(=O)N2[C@H]1C(=O)O [compound (f), 6-[D(-)-α-{3-(3,4-dihydroxybenzoyl)-3-(3-hydroxypropyl)-1-ureido}-α-(4-hydroxyphenyl)acetamido]penicillanic acid]	3.12 (≈ 5.18 µM)	0.78 (≈ 1.29 µM)	0.4 (≈ 0.664 µM)	0.78 (≈ 1.29 µM)	0.78 (≈ 1.29 µM)	0.4 (≈ 0.664 µM)	1.56 (≈ 2.59 µM)	≤ 0.1	≤ 0.1	0.2 (≈ 0.332 µM)	1.18
CC1(C)S[C@@H]2[C@H](NC(=O)[C@H](NC(=O)N(CCO)C(=O)c3ccc(O)c(O)c3)c3ccccc3)C(=O)N2[C@H]1C(=O)O [compound (b), 6-[D(-)-α-{3-(3,4-dihydroxybenzoyl)-3-(2-hydroxyethyl)-1-ureido}-α-phenylacetamide]penicillanic acid]	25 (≈ 43.7 µM)	6.25 (≈ 10.9 µM)	0.78 (≈ 1.36 µM)	3.12 (≈ 5.45 µM)	1.56 (≈ 2.72 µM)	3.12 (≈ 5.45 µM)	3.12 (≈ 5.45 µM)	≤ 0.1	≤ 0.1	0.78 (≈ 1.36 µM)	1.20
CN(C(=O)N[C@@H](C(=O)N[C@@H]1C(=O)N2[C@@H]1SC(C)(C)[C@@H]2C(=O)O)c1ccccc1)C(=O)c1ccc(O)c(O)c1 [compound Z, 6-[D(-)-α-{3-(3,4-dihydroxybenzoyl)-3-methyl-1-ureido}-α-phenylacetamido]penicillanic acid, reference compound]	0.4 (≈ 0.737 µM)	0.2 (≈ 0.369 µM)	0.1 (≈ 0.184 µM)	0.2 (≈ 0.369 µM)	0.4 (≈ 0.737 µM)	≤ 0.1	0.78 (≈ 1.44 µM)	≤ 0.1	≤ 0.1	0.1 (≈ 0.184 µM)	2.30
CCN1CCN(C(=O)N[C@@H](C(=O)N[C@@H]2C(=O)N3[C@@H]2SC(C)(C)[C@@H]3C(=O)O)c2ccccc2)C(=O)C1=O [piperacillin, 6-[D(-)-α-(4-ethyl-2,3-dioxo-1-piperazinylcarbonylamino)phenylacetamido]penicillanic acid, reference compound]	25 (≈ 48.3 µM)	0.2 (≈ 0.386 µM)	0.2 (≈ 0.386 µM)	12.5 (≈ 24.2 µM)	≤ 0.2	3.12 (≈ 6.03 µM)	0.78 (≈ 1.51 µM)	0.78 (≈ 1.51 µM)	0.4 (≈ 0.773 µM)	12.5 (≈ 24.2 µM)	10.0
CC1(C)S[C@@H]2[C@H](NC(=O)[C@H](NC(=O)N(CCOCCO)C(=O)c3ccc(O)c(O)c3)c3ccccc3)C(=O)N2[C@H]1C(=O)O [compound (c), 6-[D(-)-α-[3-(3,4-dihydroxybenzoyl)-3-{2-(2-hydroxyethoxy)ethyl}-1-ureidol]-α-phenylacetamido]-penicillanic acid]	1.56 (≈ 2.53 µM)	0.4 (≈ 0.649 µM)	0.1 (≈ 0.162 µM)	0.78 (≈ 1.26 µM)	0.4 (≈ 0.649 µM)	0.4 (≈ 0.649 µM)	1.56 (≈ 2.53 µM)	≤ 0.1	≤ 0.1	0.2 (≈ 0.324 µM)	1.48
CC1(C)S[C@@H]2[C@H](NC(=O)[C@H](NC(=O)N(CCCO)C(=O)c3ccc(O)c(O)c3)c3ccccc3)C(=O)N2[C@H]1C(=O)O [compound (a), 6-[D(-)-α-{3-(3,4-dihydroxybenzoyl)-3-(3-hydroxypropyl)-1-ureido}-α-phenylacetamido]penicillanic acid]	3.12 (≈ 5.32 µM)	0.4 (≈ 0.682 µM)	0.2 (≈ 0.341 µM)	0.78 (≈ 1.33 µM)	0.78 (≈ 1.33 µM)	0.4 (≈ 0.682 µM)	1.56 (≈ 2.66 µM)	≤ 0.1	≤ 0.1	0.4 (≈ 0.682 µM)	0.61
